Converted amounts (≈) assume the structure as drawn.
The molecules below were run on Trypanosoma brucei (assay: DNDI: Inhibition of Human African Trypanosomiasis, SBRI 427, in vitro). Conditions: Trypanosoma brucei, SBRI 427; read-out: IC50.
Format: functional, organism-based

IC50 | Compound
2.5 µg/mL (≈ 6.64 µM) | CC(C)c1cccc(Oc2ccc(/C(=N/O)N(C)Cc3cccnc3)cn2)c1
0.67 µg/mL (≈ 1.67 µM) | Cc1ccc(/C(=N/O)NC2CCCC2)c(Oc2ccc3oc4ccccc4c3c2)n1
4.86 µg/mL (≈ 12.4 µM) | Cc1ccc2cccc(Oc3cc(/C(=N/O)NC4CCC(C)CC4)ccn3)c2n1 (configuration not stated)
0.35 µg/mL (≈ 1.12 µM) | COc1ccccc1Oc1ncccc1/C(=N/O)NCC1CC1
1.34 µg/mL (≈ 3.81 µM) | Cc1ccc(/C(=N/O)N(C)c2ccccc2)c(Oc2cccc(F)c2)n1
4.25 µg/mL (≈ 14.8 µM) | O/N=C(\NC1CC1)c1cccnc1Oc1ccccc1F
2.99 µg/mL (≈ 7.37 µM) | CCOc1ccccc1CN/C(=N\O)c1ccc(C)nc1Oc1ccc(C)cc1C
6.96 µg/mL (≈ 21.4 µM) | Cc1ccc(Oc2nc(C)ccc2/C(=N/O)NC2CCCC2)cc1
3.79 µg/mL (≈ 9.23 µM) | O/N=C(\NCc1cccnc1)c1ccc(Oc2ccc3oc4ccccc4c3c2)nc1
1.23 µg/mL (≈ 3.6 µM) | COc1cccc(Oc2ccc(/C(=N/O)NC3CCCCC3)cn2)c1
0.4 µg/mL (≈ 1.05 µM) | Cc1ccc(/C(=N/O)NC2CCCC2)c(Oc2cc(Cl)ccc2Cl)n1
1.94 µg/mL (≈ 5.92 µM) | Cc1cc(C)cc(CN/C(=N\O)c2cccnc2OCC(C)C)c1
2.11 µg/mL (≈ 6.11 µM) | Cc1ccc(/C(=N/O)NCC(C)(C)C)c(OCc2cccc(F)c2)n1
5 µg/mL (≈ 15.1 µM) | O/N=C(\NC1CCCC1)c1ccnc(Oc2ccc(Cl)cc2)c1
2.94 µg/mL (≈ 8.82 µM) | O/N=C(\NC1CCCC1)c1ccnc(Oc2ccc(F)c(F)c2)c1
1.6 µg/mL (≈ 4.11 µM) | CCC(C)(C)N/C(=N\O)c1ccc(Oc2ccc3oc4ccccc4c3c2)nc1
1.6 µg/mL (≈ 3.98 µM) | Cc1cc(C)cc(Oc2nc(C)ccc2/C(=N/O)N2c3ccccc3CCC2C)c1 (configuration not stated)

IC50 | Compound
1.67 µg/mL (≈ 4.26 µM) | Cc1ccc(CN/C(=N\O)c2cccnc2Oc2cc(Cl)ccc2Cl)o1
0.45 µg/mL (≈ 1.36 µM) | Cc1ccc(/C(=N/O)NCC(C)(C)C)c(Oc2cccc(F)c2)n1
2.79 µg/mL (≈ 7.41 µM) | Cc1cc(C)cc(CN/C(=N\O)c2ccc(C)nc2OCc2ccccn2)c1
1.77 µg/mL (≈ 5.18 µM) | COCCN/C(=N\O)c1cccnc1Oc1ccc(C)c2c1CCC2
> 5 µg/mL | CC1CCC(N/C(=N\O)c2ccnc(Oc3cccc4cccnc34)c2)CC1 (configuration not stated)
> 5 µg/mL | Cc1ccc(Oc2cc(/C(=N/O)N3CCCCCC3)ccn2)c(C)c1
0.41 µg/mL (≈ 1.19 µM) | CCC(CC)N/C(=N\O)c1cccnc1Oc1ccccc1SC
1.51 µg/mL (≈ 4.02 µM) | COc1ccc(Oc2ncccc2/C(=N/O)NC2CCc3ccccc32)cc1 (configuration not stated)
2.93 µg/mL (≈ 8.29 µM) | Cc1cc(C)cc(Oc2ccc(/C(=N/O)NC3CCC(C)CC3)cn2)c1 (configuration not stated)
0.73 µg/mL (≈ 1.71 µM) | CC1CCc2ccccc2N1/C(=N\O)c1cccnc1Oc1ccc(-n2cncn2)cc1 (configuration not stated)
1.25 µg/mL (≈ 4.09 µM) | CC1CCC(C)N1/C(=N\O)c1cccnc1OCC(C)(C)C (configuration not stated)
2.32 µg/mL (≈ 6.68 µM) | CC1CCCN1/C(=N\O)c1ccc(Oc2ccc3ccccc3c2)nc1 (configuration not stated)
1.61 µg/mL (≈ 4.92 µM) | CCC(CC)N/C(=N\O)c1ccc(Oc2cc(C)cc(C)c2)nc1
2.36 µg/mL (≈ 6.49 µM) | COc1ccc(Oc2ncccc2/C(=N/O)NCc2ccccc2C)cc1
2.37 µg/mL (≈ 6.25 µM) | COc1ccc(Oc2ncccc2/C(=N/O)NCc2ccccc2OC)cc1
> 5 µg/mL | Cc1cc(Oc2ccc(/C(=N/O)N3CCCC3C)cn2)cc(C(C)C)c1 (configuration not stated)

Continued, molecule first:

Compound | IC50
Cc1ccc([C@@H](C)NCc2coc(-c3cccc4ccccc34)n2)cc1 | 1.86 µg/mL (≈ 5.43 µM)
O/N=C(\Nc1ccccc1)c1cccnc1OCc1ccccc1 | 1.26 µg/mL (≈ 3.95 µM)
C[C@@H]1C(NCc2coc(-c3cccc(F)c3)n2)C[C@H]2C[C@@H]1C2(C)C (some centres not stated) | 1.18 µg/mL (≈ 3.59 µM)
O/N=C(\NC1CCCC1)c1ccnc(Oc2ccc(F)c(Cl)c2)c1 | 2.2 µg/mL (≈ 6.29 µM)
CC(C)(C)CN/C(=N\O)c1ccnc(Oc2cccc(F)c2)c1 | 2.19 µg/mL (≈ 6.9 µM)
CCC(CC)N/C(=N\O)c1cccnc1OCc1ccccc1 | 0.51 µg/mL (≈ 1.63 µM)
C[C@@H]1C(NCc2coc(-c3cccc4ccccc34)n2)C[C@H]2C[C@@H]1C2(C)C (some centres not stated) | 0.94 µg/mL (≈ 2.61 µM)
CCC(CC)N/C(=N\O)c1ccc(Oc2ccc(Cl)cc2)nc1 | 1.63 µg/mL (≈ 4.88 µM)
CCC(CC)N/C(=N\O)c1ccc(Oc2cccc3c2CCCC3)nc1 | 1.26 µg/mL (≈ 3.56 µM)
NCCc1cn(Cc2coc(-c3ccc(Cl)cc3Cl)n2)cn1 | 4.34 µg/mL (≈ 12.9 µM)
C[C@H]1C(NCc2coc(-c3cccs3)n2)C[C@@H]2C[C@H]1C2(C)C (some centres not stated) | 2.27 µg/mL (≈ 7.17 µM)
CSCCN/C(=N\O)c1cccnc1Oc1c(F)cccc1F | 4.81 µg/mL (≈ 14.2 µM)
CCOc1ccccc1-c1nc(CNC(C)C(C)(C)C)co1 (configuration not stated) | 2.12 µg/mL (≈ 7.01 µM)
COc1cccc(-c2nc(CNC34C[C@H]5C[C@@H](C3)C[C@@H](C4)C5)co2)c1 | > 5 µg/mL
CCc1ccc(Oc2ccc(/C(=N/O)NC3CCCC3)cn2)cc1 | 40.8 µg/mL (≈ 126 µM)
O/N=C(\NCc1cccs1)c1ccc(Oc2cccc(F)c2)nc1 | 1.93 µg/mL (≈ 5.62 µM)
C[C@H]1C(NCc2coc(-c3ccc(O)cc3)n2)C[C@@H]2C[C@H]1C2(C)C (some centres not stated) | 1.36 µg/mL (≈ 4.17 µM)
CC(C)c1cccc(Oc2ccc(/C(=N/O)NCc3ccncc3)cn2)c1 | 2.64 µg/mL (≈ 7.28 µM)
Clc1ccc(-c2nc(CNCCCn3ccnc3)co2)c(Cl)c1 | 2.02 µg/mL (≈ 5.75 µM)
CC1CCCCN1CCCNCc1coc(-c2cccc3ccccc23)n1 (configuration not stated) | 2.07 µg/mL (≈ 5.69 µM)
O/N=C(\NCC1CCCCC1)c1ccc(Oc2ccc(-n3ccnc3)cc2)nc1 | 1.43 µg/mL (≈ 3.65 µM)
O/N=C(\NC1CCCCC1)c1ccc(Oc2cc(Cl)ccc2Cl)nc1 | 1.3 µg/mL (≈ 3.42 µM)
CCCC(CCC)NCc1coc(-c2ccccc2OCC)n1 | 1.76 µg/mL (≈ 5.56 µM)
Cc1ccc(-c2nc(Cn3nc(N)cc3C)co2)cc1 | > 5 µg/mL
